From ChEMBL document CHEMBL1773043, “Platensimycin and platencin congeners from Streptomyces platensis” (J Nat Prod, 2011)
Active and inactive are the calls of the source. The rule behind the calls is not given here.

These compounds were tested on Streptococcus pneumoniae (assay: Antibacterial activity against Streptococcus pneumoniae at 64 ug/ml after 20 hrs).
Format: functional, organism-based

Compound | Activity
C=C1C2CCC3(C=CC(=O)[C@@](C)(CCC(=O)Nc4c(O)ccc(C(=O)O)c4O)C3C2)[C@H]1O (stereo partly drawn) | inactive
C=C1CC23C=CC(=O)[C@@](C)(CCC(=O)Nc4c(O)ccc(C(=O)OC)c4O)C2CC1C[C@H]3O (stereo partly drawn) | inactive
COC(=O)c1ccc(O)c(NC(=O)CC[C@]2(C)C(=O)C=CC34CC5(C)OC(C[C@]5(O)C3)C42)c1O (stereo partly drawn) | inactive
COCC(O)COc1ccc(C(C)(C)c2ccc(OCC(O)CO)cc2)cc1 (stereo not drawn) | inactive
C=C1CC23C=CC(=O)[C@@](C)(CCC(=O)OC)C2CC1[C@@H](O)C3 (stereo partly drawn) | inactive
C=C1CC23C=CC(=O)[C@@](C)(CCC(=O)Nc4c(O)ccc(C(=O)O)c4O)C2CC1[C@@H](O)C3 (stereo partly drawn) | inactive
C=C1C[C@@]23C=CC(=O)[C@@](C)(CCC(=O)Nc4c(O)ccc(C(=O)O)c4O)[C@@H]2C[C@@H]1CC3 | inactive

The compounds below were run on Enterococcus faecium (assay: Antibacterial activity against Enterococcus faecium at 64 ug/ml after 20 hrs).
Format: functional, organism-based

Compound | Activity
C=C1C2CCC3(C=CC(=O)[C@@](C)(CCC(=O)Nc4c(O)ccc(C(=O)O)c4O)C3C2)[C@H]1O (stereo partly drawn) | inactive
C=C1CC23C=CC(=O)[C@@](C)(CCC(=O)Nc4c(O)ccc(C(=O)OC)c4O)C2CC1C[C@H]3O (stereo partly drawn) | inactive
COC(=O)c1ccc(O)c(NC(=O)CC[C@]2(C)C(=O)C=CC34CC5(C)OC(C[C@]5(O)C3)C42)c1O (stereo partly drawn) | inactive
COCC(O)COc1ccc(C(C)(C)c2ccc(OCC(O)CO)cc2)cc1 (stereo not drawn) | inactive
C=C1CC23C=CC(=O)[C@@](C)(CCC(=O)OC)C2CC1[C@@H](O)C3 (stereo partly drawn) | inactive
C=C1CC23C=CC(=O)[C@@](C)(CCC(=O)Nc4c(O)ccc(C(=O)O)c4O)C2CC1[C@@H](O)C3 (stereo partly drawn) | inactive
C=C1C[C@@]23C=CC(=O)[C@@](C)(CCC(=O)Nc4c(O)ccc(C(=O)O)c4O)[C@@H]2C[C@@H]1CC3 | inactive

Each compound was assayed on Escherichia coli (assay: Antibacterial activity against Escherichia coli at 64 ug/ml after 20 hrs).
Format: functional, organism-based

Compound | Activity
C=C1C2CCC3(C=CC(=O)[C@@](C)(CCC(=O)Nc4c(O)ccc(C(=O)O)c4O)C3C2)[C@H]1O (stereo partly drawn) | inactive
C=C1CC23C=CC(=O)[C@@](C)(CCC(=O)Nc4c(O)ccc(C(=O)OC)c4O)C2CC1C[C@H]3O (stereo partly drawn) | inactive
COC(=O)c1ccc(O)c(NC(=O)CC[C@]2(C)C(=O)C=CC34CC5(C)OC(C[C@]5(O)C3)C42)c1O (stereo partly drawn) | inactive
COCC(O)COc1ccc(C(C)(C)c2ccc(OCC(O)CO)cc2)cc1 (stereo not drawn) | inactive
C=C1CC23C=CC(=O)[C@@](C)(CCC(=O)OC)C2CC1[C@@H](O)C3 (stereo partly drawn) | inactive
C=C1CC23C=CC(=O)[C@@](C)(CCC(=O)Nc4c(O)ccc(C(=O)O)c4O)C2CC1[C@@H](O)C3 (stereo partly drawn) | inactive
C=C1C[C@@]23C=CC(=O)[C@@](C)(CCC(=O)Nc4c(O)ccc(C(=O)O)c4O)[C@@H]2C[C@@H]1CC3 | inactive

Each compound was assayed on Enterococcus faecalis (assay: Antibacterial activity against Enterococcus faecalis at 64 ug/ml after 20 hrs).
Format: functional, organism-based

Compound | Activity
C=C1C2CCC3(C=CC(=O)[C@@](C)(CCC(=O)Nc4c(O)ccc(C(=O)O)c4O)C3C2)[C@H]1O (stereo partly drawn) | inactive
C=C1CC23C=CC(=O)[C@@](C)(CCC(=O)Nc4c(O)ccc(C(=O)OC)c4O)C2CC1C[C@H]3O (stereo partly drawn) | inactive
COC(=O)c1ccc(O)c(NC(=O)CC[C@]2(C)C(=O)C=CC34CC5(C)OC(C[C@]5(O)C3)C42)c1O (stereo partly drawn) | inactive
COCC(O)COc1ccc(C(C)(C)c2ccc(OCC(O)CO)cc2)cc1 (stereo not drawn) | inactive
C=C1CC23C=CC(=O)[C@@](C)(CCC(=O)OC)C2CC1[C@@H](O)C3 (stereo partly drawn) | inactive
C=C1CC23C=CC(=O)[C@@](C)(CCC(=O)Nc4c(O)ccc(C(=O)O)c4O)C2CC1[C@@H](O)C3 (stereo partly drawn) | inactive
C=C1C[C@@]23C=CC(=O)[C@@](C)(CCC(=O)Nc4c(O)ccc(C(=O)O)c4O)[C@@H]2C[C@@H]1CC3 | inactive

What follows are compounds tested on Haemophilus influenzae (assay: Antibacterial activity against Haemophilus influenzae at 64 ug/ml after 20 hrs).
Format: functional, organism-based

Compound | Activity
C=C1C2CCC3(C=CC(=O)[C@@](C)(CCC(=O)Nc4c(O)ccc(C(=O)O)c4O)C3C2)[C@H]1O (stereo partly drawn) | inactive
C=C1CC23C=CC(=O)[C@@](C)(CCC(=O)Nc4c(O)ccc(C(=O)OC)c4O)C2CC1C[C@H]3O (stereo partly drawn) | inactive
COC(=O)c1ccc(O)c(NC(=O)CC[C@]2(C)C(=O)C=CC34CC5(C)OC(C[C@]5(O)C3)C42)c1O (stereo partly drawn) | inactive
COCC(O)COc1ccc(C(C)(C)c2ccc(OCC(O)CO)cc2)cc1 (stereo not drawn) | inactive
C=C1CC23C=CC(=O)[C@@](C)(CCC(=O)OC)C2CC1[C@@H](O)C3 (stereo partly drawn) | inactive
C=C1CC23C=CC(=O)[C@@](C)(CCC(=O)Nc4c(O)ccc(C(=O)O)c4O)C2CC1[C@@H](O)C3 (stereo partly drawn) | inactive
C=C1C[C@@]23C=CC(=O)[C@@](C)(CCC(=O)Nc4c(O)ccc(C(=O)O)c4O)[C@@H]2C[C@@H]1CC3 | inactive

Each compound was assayed against T1, 3-oxoacyl-[acyl-carrier-protein] synthase 2 (Staphylococcus aureus) (UniProt Q5TKS0) (assay: Inhibition of Staphylococcus aureus […] assessed as [2-14C]-malonyl CoA incorporation after 90 mins by cell free-based scintillation counting).
T1 sequence (whole entry): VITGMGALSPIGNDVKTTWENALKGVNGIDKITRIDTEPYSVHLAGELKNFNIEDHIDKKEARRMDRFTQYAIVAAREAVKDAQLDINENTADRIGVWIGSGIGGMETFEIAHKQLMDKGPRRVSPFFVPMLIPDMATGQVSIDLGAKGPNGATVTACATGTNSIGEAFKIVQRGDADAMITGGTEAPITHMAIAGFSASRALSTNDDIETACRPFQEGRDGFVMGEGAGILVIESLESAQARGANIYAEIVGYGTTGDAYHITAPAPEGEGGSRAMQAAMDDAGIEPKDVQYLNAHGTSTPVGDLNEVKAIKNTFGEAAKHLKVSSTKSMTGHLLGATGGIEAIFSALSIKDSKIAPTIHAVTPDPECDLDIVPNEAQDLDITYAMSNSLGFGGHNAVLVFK

Compound | inhibition
C=C1C2CCC3(C=CC(=O)[C@@](C)(CCC(=O)Nc4c(O)ccc(C(=O)O)c4O)C3C2)[C@H]1O (stereo partly drawn) | inactive
C=C1CC23C=CC(=O)[C@@](C)(CCC(=O)Nc4c(O)ccc(C(=O)OC)c4O)C2CC1C[C@H]3O (stereo partly drawn) | inactive
COC(=O)c1ccc(O)c(NC(=O)CC[C@]2(C)C(=O)C=CC34CC5(C)OC(C[C@]5(O)C3)C42)c1O (stereo partly drawn) | inactive
COCC(O)COc1ccc(C(C)(C)c2ccc(OCC(O)CO)cc2)cc1 (stereo not drawn) | inactive
C=C1CC23C=CC(=O)[C@@](C)(CCC(=O)OC)C2CC1[C@@H](O)C3 (stereo partly drawn) | inactive
C=C1CC23C=CC(=O)[C@@](C)(CCC(=O)Nc4c(O)ccc(C(=O)O)c4O)C2CC1[C@@H](O)C3 (stereo partly drawn) | inactive

What follows are compounds tested on Staphylococcus aureus (assay: Antibacterial activity against Staphylococcus aureus at 64 ug/ml after 20 hrs).
Format: functional, organism-based

Compound | Activity
C=C1C2CCC3(C=CC(=O)[C@@](C)(CCC(=O)Nc4c(O)ccc(C(=O)O)c4O)C3C2)[C@H]1O (stereo partly drawn) | inactive
C=C1CC23C=CC(=O)[C@@](C)(CCC(=O)Nc4c(O)ccc(C(=O)OC)c4O)C2CC1C[C@H]3O (stereo partly drawn) | inactive
COC(=O)c1ccc(O)c(NC(=O)CC[C@]2(C)C(=O)C=CC34CC5(C)OC(C[C@]5(O)C3)C42)c1O (stereo partly drawn) | inactive
COCC(O)COc1ccc(C(C)(C)c2ccc(OCC(O)CO)cc2)cc1 (stereo not drawn) | inactive
C=C1CC23C=CC(=O)[C@@](C)(CCC(=O)OC)C2CC1[C@@H](O)C3 (stereo partly drawn) | inactive
C=C1CC23C=CC(=O)[C@@](C)(CCC(=O)Nc4c(O)ccc(C(=O)O)c4O)C2CC1[C@@H](O)C3 (stereo partly drawn) | inactive
C=C1C[C@@]23C=CC(=O)[C@@](C)(CCC(=O)Nc4c(O)ccc(C(=O)O)c4O)[C@@H]2C[C@@H]1CC3 | inactive
